Literature values in US20180064655A1, “Hydroxynorketamine Transdermal Patch” (priority 2016, published 2018).

Key:
[1] = metabolite of ketamine
[2] = in vivo
[3] = in vivo; remark: listed apart in the source
[4] = following a single administration

Row | Structure (SMILES) | antidepressant effect [1] | ketamine-related side-effects [2] | onset of antidepressant effects [4] | persistence of antidepressant effects [4] | efficacy as an antidepressant (in vivo) | side effects limiting clinical use [3]
1 | N[C@@]1(c2ccccc2Cl)CCC[C@@H](O)C1=O [(2R,6R)-HNK, (2R,6R)-hydroxynorketamine] | responsible for the antidepressant effect observed with ketamine treatment | lacks ketamine-related side-effects |  |  |  | 
2 | CNC1(c2ccccc2Cl)CCCCC1=O (stereo not drawn) [Ketamine] |  |  | within hours | approximately one | rapid and robust efficacy as an antidepressant | abuse potential and sensory-dissociation side effects
